We go through 1 molecule from patent US12691087B2, “Method of enhancing glucose levels in the central nervous system” (THE INSTITUTE FOR ETHNOMEDICINE, priority 2018, dated 2026).

Each structure is given as a SMILES string.

The nature of series [1]: Glucose in cerebral spinal fluid of vervets fed L-serine. It counts as in vivo, vervets (Chlorocebus pygerythrus). On the procedure: […]. These were compared to four control vervets who were fed daily control doses of 651 mg/day of rice powder for 42 days.
Cerebral spinal fluid samples were taken during the experiment. The cerebral spinal fluid samples from vervets fed L-serine were compared to cerebral spinal fluid samples from control vervets at 42 days.
Frozen cerebral spinal fluid (CSF) was prepared using equal volumes of CSF and 20% w/v TCA. The combined volume was sonicated (Fisher Scientific Sonic Dismembrator, Model 100) on ice at 2 watts (10 s×3) and left to precipitate at room temperature for 30 minutes. The sample was then centrifuged (Labnet Spectrafuge 16M) at 14,000 g for 5 min. […]
CSF extracts were analyzed on a TSQ Quantiva (Thermo Scientific) triple quadrupole mass spectrometer with an Ultra High Pressure Liquid Chromatography (Waters Acquity-UHPLC) system equipped with a Binary Solvent Manager, Sample Manager, and an Acquity UPLC BEH Amide column (#186004801, 100×2.1 mm, 1.7 μm) at 50° C. […]
The mass spectrometer was operated with a heated electrospray ionization (H-ESI) probe and sheath gas pressure set to 40 (Arb), aux gas set to 2 (Arb), and sweep gas set to 1 (Arb). Samples were analyzed in negative ion mode with a vaporizer temperature of 350° C., capillary temperature of 130° C., and spray voltage 2800v. […]

Series [2] relates to human neuroblastoma cells (SH-SY5Y). The series can be described thus: Glucose synthesis by SH-SY5Y cells given L-serine (Amplex Red Glucose Assay, culture medium). The series is classed as cell-based. The settings on record: 100, 200 and 500 mM L-serine; 0, 24 and 48 hrs; medium deficient in glucose. On the procedure: Cell Culture: SH-SY5Y human neuroblastoma (PD19, […]) were cultured in 150 cm^2 flasks in Dulbecco's Modified Eagle's Medium/Nutrient F-12 Ham (Sigma-Aldrich, Cat. No. D8437) containing 10% fetal bovine serum (FBS), 4 mM L-glutamine, 100 U/mL penicillin, and 100 μg/mL streptomycin at 37° C. (Complete Medium) in a humidified atmosphere of 5% CO2 and 95% air. At between 70 and 90% confluence, the cells were trypsinized with 0.5% Trypsin-EDTA (Thermo Fisher, Cat. No. 15400054) and then 2.5×10^5 cells/well plated in twenty-four-well plates and allowed to adhere overnight (PD22). The following day, the cell culture medium was aspirated, and the cells were washed three times in warm […] Hanks buffered salt solution (HBSS). […] Glucose concentrations were measured using the Amplex® Red Glucose/Glucose Oxidase Assay Kit (Invitrogen). […] Fluorescence was read at excitation 540 nm and emission […] in SoftMax Pro version 7.0.2 on a Molecular Devices Flexstation 3. Glucose concentrations in the samples were calculated from the standard curve. […] Human neuroblastoma cells were incubated in medium deficient in glucose and L-serine, but supplemented with increasing concentrations of L-[…], 200 and 500 mM) for 0, 24 and 48 hrs, then glucose concentrations in the culture medium measured using the Amplex® Red Glucose Assay (Invitrogen).

The nature of series [3]: Storage stability of L-serine. The series is classed as physicochemical. The settings on record: 24 month storage, room temperature (<30° C.), relative humidity <75%.
A short description of series [4]: Randomized, placebo-controlled double-blinded study of cognitive ability in healthy post-menopausal women (Rey Auditory Verbal Learning Test). The series is classed as in vivo, human. The settings on record: 15 g/day for 60 days. From the text:
This Example describes a nutritional experiment conducted on post-menopausal women. The study was designed to determine if dietary supplementation with L-[…] grams/day) improves cognitive ability in healthy women when administered over a 60-day period. Forty-eight women ages 55 years, who had not been diagnosed with mild cognitive impairment, probable dementia, or Alzheimer's disease participated as volunteers in this randomized, placebo-controlled double-blinded study. Forty-three women completed the study. Cognitive abilities of each participant were assessed in several different cognitive domains by using the NIH toolbox (Gershon et al, 2013) on an I-Pad, founded on earlier test procedures developed by Atkinson and […] (1968). Cognitive tests included the Rey Auditory Verbal Learning Test which broadly assesses short-term auditory and verbal learning (King et al. 1998). For example, in one test participants were presented 15 unrelated words and asked to repeat them again after 30 minutes. The cognitive assessment was administered to participants at the beginning and the end of the sixty-day study period. The assessment procedure lasted 45 minutes for each individual. L-serine gummies, each at 2.2 grams total weight, and each containing 1.0 grams of L-serine were manufactured in a cGMP FDA-compliant facility by […]). Placebo gummies were manufactured in a similar manner. […] The gummies were placed in sealed foil packets, each packet containing 15 gummies. Microbiological analysis indicated the gummies to be free of bacterial contamination. The materials used for packaging were manufactured by ESP Packaging LLC (Costa Mesa, CA). Each individual foil packet was labeled with a lot number containing the Julian code date. […] The differences between the beginning and end score for each participant in the L-serine treatment and placebo treatment groups were evaluated using a Wilcoxon-Mann-Whitney test with p<0.05 as the significance level. […]

Series [5] can be described thus: Case study of a person with GLUT1 deficiency. The series is classed as in vivo, human. The settings on record: 30 grams per day oral, single patient. From the text:
Evidence for the efficacy of L-serine therapy for glucose deficiency syndrome is supported by a case-study of a person (“the patient”) who suffered ataxia, developmental impairment, reduced social interaction, and fine motor skill deficits as a result of their GLUT1 deficiency. In subjects suffering from glucose deficiency syndrome, there is insufficient glucose transported across the brain to allow proper functioning of brain cells. Since L-serine is transported through a different mechanism across the blood brain barrier, it is possible to increase intracranial glucose concentrations through administration of high doses of L-serine. The patient was administered 30 grams of L-serine per day by oral administration.

For series [6] the following is noted: up to 30 g/day over a six-month period; 20 ALS patients; cited from earlier work.

Consider `N[C@@H](CO)C(=O)O` [L-serine], for which, in series [1] (651 mg/day oral for 42 days, significant at p<0.005), the “increase of glucose levels versus control vervets” value was “great than doubling”. Further, the “median level of glucose in CSF” value in series [1] (vervets fed 651 mg/day L-serine for 42 days, CSF at 42 days, control 24 mg/100 ml, p<0.005) was found to be 58 mg/100 ml. In addition, the “glucose concentration in the culture medium compared to Control (0 mM L-serine)” value in series [2] is reported as “No significant increase”. Moreover, in series [3], the “changes in optical rotation or purity on storage” value is listed as “No significant changes” and the stability on storage result is given as “extraordinarily stable”. In addition, the delayed list recall in series [4] (did not achieve statistical significance) is given as “trend towards improvement”. For the same molecule, the “mean improvement on the Rey Auditory Verbal Learning Test” value in series [4] (final minus beginning score, placebo 4.0) was determined as 7.9. In series [4] (p<0.01), the “improvement in learning ability (Rey Auditory Verbal Learning Test) compared to the placebo group” value was 98%. Besides, in series [5], the “fine motor skills, including handwriting” value was “improved fine motor skills” and the social interaction entry is given as “improved social interaction”. Also, the “patient's condition (ability to ride a bicycle and carry cargo)” value in series [5] (within several weeks) is “rapid improvement”. Moreover, the safety entry in series [6] is “safe”.
